Publication PMC6529438 (2019)

Assays:
Assay in all cases: graphene oxide FRET fluorescence recovery with DNase I amplification
Conditions in all cases: 5 mM Mg2+, 15 mM Na+, 20 mM Tris-HCl, 0.001% PEG 900, pH 8.0
[1] = test system: Cy3-modified sulfadimethoxine aptamer (P1) (DNA, aptamer) GAGGGCAACGAGTGTTTATAGA
[2] = test system: Cy5-modified ampicillin aptamer (P3) (DNA, aptamer) GCGGGCGGTTGTATAGCGG
[3] = test system: FAM-modified kanamycin aptamer (P2) (DNA, aptamer) TGGGGGTTGAGGCTAAGCCGA
[4] = 10-500 ng/mL, room temperature, then 37 °C with DNase I
[5] = 500 ng/mL, mixed aptamers, very weak signal change

CC1(C)S[C@@H]2[C@H](NC(=O)[C@H](N)c3ccccc3)C(=O)N2[C@H]1C(=O)O
binding ([1]; 500 ng/mL, with kanamycin none, alone weak signal change): no
binding [2, 4]: yes
binding ([3]; 500 ng/mL, mixed aptamers, weak signal change only): weak

COc1cc(NS(=O)(=O)c2ccc(N)cc2)nc(OC)n1
binding [1, 4]: yes
binding [2, 5]: no
binding [3, 5]: no

NC[C@H]1O[C@H](O[C@H]2[C@H](O)[C@@H](O[C@H]3O[C@H](CO)[C@@H](O)[C@H](N)[C@H]3O)[C@H](N)C[C@@H]2N)[C@H](O)[C@@H](O)[C@@H]1O
binding ([1]; 500 ng/mL kanamycin with 500 ng/mL ampicillin, mixed aptamers): no
binding [3, 4]: yes
